SMILES strings stand for the structures.

The conditions of series [1]: reported in Kim et al., Exp. Mol. Med. 55, 612-627 (2023); read-out: GI50 (cytotoxicity side effects); cited from earlier work.
Series [2] has as its system human Tau-BiFC (hTau-VN173, hTau-VC155). The series can be described thus: Tau immunoblot of brain lysate, soluble fraction, hTau. The class given is in vivo, mouse. Particulars: LMTM 15 mg/kg oral vs. vehicle; decrease (in parentheses). As to the method: (§1) • (1) After completing administration, the mice of TauP301L-BiFC mouse model were anesthetized, followed by preparing heart laparotomy. • (2) Saline was introduced to the heart of each mouse in the TauP301L-BiFC mouse model, followed by removing vivo blood using a perfusion pump machine. • (3) After removing the blood, the brain was extracted and weighed. • (4) 1 mL RIPA buffer (w/protease/phosphatase inhibitor cocktail) was added to the extracted brain, followed by homogenization. • (5) After moving the homogenized brain lysate to an ep-tube, it was subjected to incubation in 4°C orbital shaker for 2 hours. • (6) After centrifugation at 4°C with a speed of 13,000 rpm for 20 minutes, the supernatant (soluble fraction) was collected in a new ep-tube and stored at -80°C • (7) In order to prepare an immunoblot sample, the concentration of a soluble fraction sample was quantified by Bradford protein quantification method. • (8) To each sample, RIPA buffer and 4X SDS Laemmli sample buffer (w/ 2.5% β-mercaptoethanol for reducing condition) were added to reach a final concentration of 2 mg/mL. • (9) The sample was boiled at 97°C for 5 minutes. […]

For series [3] the following is noted: patients with mild or moderate Alzheimer's disease; most general cause for stopping high-dose LMTM; cited from earlier work.
The subject of another series is mouse Tau (mTau). The series can be described thus: Tau immunoblot of brain lysate, soluble fraction, mTau. The class given is in vivo. The settings on record: LMTM 15 mg/kg oral vs. vehicle, decrease (in parentheses). As to the method:
as §1
In general terms: A western blot detects proteins with antibodies after separation by electrophoresis.

Another series addresses tau aggregation (Homo sapiens, UniProt P10636). Particulars: reported in Kim et al., Exp. Mol. Med. 55, 612-627 (2023); read-out: EC50 (tau aggregation inhibitory section); cited from earlier work.

tau aggregation, sequence (P10636 whole entry): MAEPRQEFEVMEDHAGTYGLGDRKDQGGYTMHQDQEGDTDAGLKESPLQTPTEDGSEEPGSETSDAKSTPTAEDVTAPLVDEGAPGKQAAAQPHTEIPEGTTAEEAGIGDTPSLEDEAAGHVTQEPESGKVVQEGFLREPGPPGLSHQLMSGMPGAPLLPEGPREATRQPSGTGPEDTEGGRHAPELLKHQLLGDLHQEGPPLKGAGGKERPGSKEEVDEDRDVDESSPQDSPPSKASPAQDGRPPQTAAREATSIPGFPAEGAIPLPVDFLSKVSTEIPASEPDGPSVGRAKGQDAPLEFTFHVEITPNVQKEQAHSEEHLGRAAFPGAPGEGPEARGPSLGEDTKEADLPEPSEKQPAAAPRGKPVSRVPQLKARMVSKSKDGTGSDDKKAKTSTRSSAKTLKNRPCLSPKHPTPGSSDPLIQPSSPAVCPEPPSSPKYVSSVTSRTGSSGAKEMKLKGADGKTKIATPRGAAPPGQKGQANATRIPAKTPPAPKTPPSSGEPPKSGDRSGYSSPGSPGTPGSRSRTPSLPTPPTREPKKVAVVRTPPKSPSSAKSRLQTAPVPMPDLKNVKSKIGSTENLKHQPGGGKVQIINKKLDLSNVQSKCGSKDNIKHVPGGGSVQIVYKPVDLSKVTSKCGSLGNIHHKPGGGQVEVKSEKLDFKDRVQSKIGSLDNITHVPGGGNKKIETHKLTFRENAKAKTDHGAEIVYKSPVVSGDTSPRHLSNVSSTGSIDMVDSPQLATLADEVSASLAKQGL

Usually GI50 stands for the concentration giving 50% growth inhibition. As a reminder, the EC50 is the concentration needed to bring the measured effect to its halfway point. For the compound `CN(C)c1ccc2c(c1)Sc1cc(N(C)C)ccc1N2.CS(=O)(=O)O.CS(=O)(=O)O` [LMTM], in series [1], the GI50 is 6.4 ± 0.3 µM. In addition, in series [2], the “Soluble fraction, Phosphorylated tau, hTau (pS199)” value is “(20%)”; the “Soluble fraction, Phosphorylated tau, hTau (pS396)” value was “(23%)”; the “Soluble fraction, Total tau, hTau” value is “(20%)”. Further, in series [3], the “most common side effects” value is “most common side effects related to gastrointestinal and urinary system”. For the same compound, in the series with mouse Tau (mTau) (***p<0.001), the “Soluble fraction, Phosphorylated tau, mTau (pS199)” value was “(34%)** *”. Besides, the “Soluble fraction, Total tau, mTau” value with mouse Tau (mTau) (**p<0.01) is on record as “(24%)**”. In addition, the “Soluble fraction, Phosphorylated tau, mTau (pS396)” value in the series on mouse Tau (mTau) (*p<0.05) is “(27%)*”. Besides, on tau aggregation, the EC50 was 2.2 ± 0.2 µM.

The values above are taken from EP4595972A1, “PEPTIDE FOR TREATING OR PREVENTING 4R TAUOPATHY” (GemVax & KAEL Co., Ltd., priority 2022, dated 2024).
